What all share (assay type): functional, cell-based
In one assay the test system is KB. Briefly: Cytotoxicity against human KB cells assessed as growth inhibition after 48 hrs by MTT assay. (In general: Formazan colour is commonly taken as a measure of viable cells.)
The nature of assay [1]: Cytotoxicity against human SGC7901 cells assessed as growth inhibition after 48 hrs by MTT assay. The conditions noted are these: SGC-7901, 48 h.
Assay [2] in a line: Cytotoxicity against human HT1080 cells assessed as growth inhibition after 48 hrs by MTT assay. The conditions noted are these: HT-1080, 48 h.

Molecules are shown by their SMILES. pIC50: −log10 of the molar value. Bounds are passed on as bounds.

As a reminder, the pIC50 is −log10 of the IC50, conventionally taken in molar units. As for `CC[C@H]1OC(=O)[C@H](C)[C@@H](O[C@H]2C[C@@](C)(OC)[C@@H](O)[C@H](C)O2)[C@H](C)[C@@H](O[C@@H]2O[C@H](C)C[C@H](N(C)CCN(C)[C@H]3C[C@@H](C)O[C@@H](O[C@@H]4[C@@H](C)[C@H](O[C@H]5C[C@@](C)(OC)[C@@H](O)[C@H](C)O5)[C@@H](C)C(=O)O[C@H](CC)[C@@](C)(O)[C@H](O)[C@@H](C)[C@@H](O)[C@H](C)C[C@@]4(C)O)[C@@H]3O)[C@H]2O)[C@](C)(O)C[C@@H](C)[C@H](O)[C@H](C)[C@@H](O)[C@]1(C)O`, the values for the pIC50 (with KB; in assay [1]; in assay [2]) were 4.35, 4.21 and below 4.00, respectively.

Take `CC[C@H]1OC(=O)[C@H](C)[C@@H](O[C@H]2C[C@@](C)(OC)[C@@H](O)[C@H](C)O2)[C@H](C)[C@@H](O[C@@H]2O[C@H](C)C[C@H](N(C)CCN(C)[C@H]3C[C@@H](C)O[C@@H](O[C@@H]4[C@@H](C)[C@H](O[C@H]5C[C@@](C)(OC)[C@@H](O)[C@H](C)O5)[C@@H](C)C(=O)O[C@H](CC)[C@@](C)(O)[C@H](O)[C@@H](C)/C(=N\OCc5ccccc5)[C@H](C)C[C@@]4(C)O)[C@@H]3O)[C@H]2O)[C@](C)(O)C[C@@H](C)/C(=N/OCc2ccccc2)[C@H](C)[C@@H](O)[C@]1(C)O`: the pIC50 (with KB; in assay [1]; in assay [2]) was below 4.00 each time.

With `CC[C@H]1OC(=O)[C@H](C)[C@@H](O[C@H]2C[C@@](C)(OC)[C@@H](O)[C@H](C)O2)[C@H](C)[C@@H](O[C@@H]2O[C@H](C)C[C@H](N(C)CCN(C)[C@H]3C[C@@H](C)O[C@@H](O[C@@H]4[C@@H](C)[C@H](O[C@H]5C[C@@](C)(OC)[C@@H](O)[C@H](C)O5)[C@@H](C)C(=O)O[C@H](CC)[C@@](C)(O)[C@H](O)[C@@H](C)/C(=N\OCOCCOC)[C@H](C)C[C@@]4(C)O)[C@@H]3O)[C@H]2O)[C@](C)(O)C[C@@H](C)/C(=N/O)[C@H](C)[C@@H](O)[C@]1(C)O`, the pIC50 is 4.73 in the assay with KB, 5.14 in assay [1] and 4.79 in assay [2].

On to `CC[C@H]1OC(=O)[C@H](C)[C@@H](O[C@H]2C[C@@](C)(OC)[C@@H](O)[C@H](C)O2)[C@H](C)[C@@H](O[C@@H]2O[C@H](C)C[C@H](N(C)CCN(C)[C@H]3C[C@@H](C)O[C@@H](O[C@@H]4[C@@H](C)[C@H](O[C@H]5C[C@@](C)(OC)[C@@H](O)[C@H](C)O5)[C@@H](C)C(=O)O[C@H](CC)[C@@](C)(O)[C@H](O)[C@@H](C)/C(=N\OCc5cc(OC)c(OC)c(OC)c5)[C@H](C)C[C@@]4(C)OC)[C@@H]3O)[C@H]2O)[C@](C)(OC)C[C@@H](C)/C(=N/OCc2cc(OC)c(OC)c(OC)c2)[C@H](C)[C@@H](O)[C@]1(C)O`, for which the pIC50 with KB was 4.70; in assay [1], 4.70; in assay [2] it was 4.99.

Consider `CC[C@H]1OC(=O)[C@H](C)[C@@H](O)[C@H](C)[C@@H](O[C@@H]2O[C@H](C)C[C@H](N(C)C(=O)CN(C)[C@H]3C[C@@H](C)O[C@@H](O[C@@H]4[C@@H](C)[C@H](O[C@H]5C[C@@](C)(OC)[C@@H](O)[C@H](C)O5)[C@@H](C)C(=O)O[C@H](CC)[C@@](C)(O)[C@H](O)[C@@H](C)/C(=N\OCOCCOC)[C@H](C)C[C@@]4(C)O)[C@@H]3O)[C@H]2O)[C@](C)(OC)C[C@@H](C)C(=O)[C@H](C)[C@@H](O)[C@]1(C)O`, for which the pIC50 (with KB; in assay [1]; in assay [2]) was below 4.00 each time.

Take `CC[C@H]1OC(=O)[C@H](C)[C@@H](O[C@H]2C[C@@](C)(OC)[C@@H](O)[C@H](C)O2)[C@H](C)[C@@H](O[C@@H]2O[C@H](C)C[C@H](N(C)C(=O)CN(C)[C@H]3C[C@@H](C)O[C@@H](O[C@@H]4[C@@H](C)[C@H](O[C@H]5C[C@@](C)(OC)[C@@H](O)[C@H](C)O5)[C@@H](C)C(=O)O[C@H](CC)[C@@](C)(O)[C@H](O)[C@@H](C)/C(=N\OCOCCOC)[C@H](C)C[C@@]4(C)O)[C@@H]3O)[C@H]2O)[C@](C)(OC)C[C@@H](C)C(=O)[C@H](C)[C@@H](O)[C@]1(C)O`: the pIC50 (with KB; in assay [1]; in assay [2]) was below 4.00 each time.

Turning to `CC[C@H]1OC(=O)[C@H](C)[C@@H](O)[C@H](C)[C@@H](O[C@@H]2O[C@H](C)C[C@H](N(C)CCN(C)[C@H]3C[C@@H](C)O[C@@H](O[C@@H]4[C@@H](C)[C@H](O[C@H]5C[C@@](C)(OC)[C@@H](O)[C@H](C)O5)[C@@H](C)C(=O)O[C@H](CC)[C@@](C)(O)[C@H](O)[C@@H](C)C(=O)[C@H](C)C[C@@]4(C)OC)[C@@H]3O)[C@H]2O)[C@](C)(OC)C[C@@H](C)C(=O)[C@H](C)[C@@H](O)[C@]1(C)O`, the results for the pIC50 (with KB; in assay [1]; in assay [2]) were 4.01, below 4.00 and below 4.00, respectively.

Regarding `CC[C@H]1OC(=O)[C@H](C)[C@@H](O[C@H]2C[C@@](C)(OC)[C@@H](O)[C@H](C)O2)[C@H](C)[C@@H](O[C@@H]2O[C@H](C)C[C@H](N(C)CCN(C)[C@H]3C[C@@H](C)O[C@@H](O[C@@H]4[C@@H](C)[C@H](O[C@H]5C[C@@](C)(OC)[C@@H](O)[C@H](C)O5)[C@@H](C)C(=O)O[C@H](CC)[C@@](C)(O)[C@H](O)[C@@H](C)/C(=N\OCOCCOC)[C@H](C)C[C@@]4(C)O)[C@@H]3O)[C@H]2O)[C@](C)(OC)C[C@@H](C)/C(=N/O)[C@H](C)[C@@H](O)[C@]1(C)O`, the pIC50 is 4.83 with KB, 4.66 in assay [1] and 5.20 in assay [2].

Consider `CC[C@H]1OC(=O)[C@H](C)[C@@H](O[C@H]2C[C@@](C)(OC)[C@@H](O)[C@H](C)O2)[C@H](C)[C@@H](O[C@@H]2O[C@H](C)C[C@H](N(C)CCN(C)[C@H]3C[C@@H](C)O[C@@H](O[C@@H]4[C@@H](C)[C@H](O[C@H]5C[C@@](C)(OC)[C@@H](O)[C@H](C)O5)[C@@H](C)C(=O)O[C@H](CC)[C@@](C)(O)[C@H](O)[C@@H](C)/C(=N\OCc5cc(OC)c(OC)c(OC)c5)[C@H](C)C[C@@]4(C)O)[C@@H]3O)[C@H]2O)[C@](C)(O)C[C@@H](C)/C(=N/OCc2cc(OC)c(OC)c(OC)c2)[C@H](C)[C@@H](O)[C@]1(C)O`, for which the pIC50 in the assay with KB is 5.08; in assay [1], 4.55; in assay [2], 5.41.

On to `CC[C@H]1OC(=O)[C@H](C)[C@@H](O[C@H]2C[C@@](C)(OC)[C@@H](O)[C@H](C)O2)[C@H](C)[C@@H](O[C@@H]2O[C@H](C)C[C@H](N(C)CCN(C)[C@H]3C[C@@H](C)O[C@@H](O[C@@H]4[C@@H](C)[C@H](O[C@H]5C[C@@](C)(OC)[C@@H](O)[C@H](C)O5)[C@@H](C)C(=O)O[C@H](CC)[C@@](C)(O)[C@H](O)[C@@H](C)/C(=N\OCc5ccccc5)[C@H](C)C[C@@]4(C)O)[C@@H]3O)[C@H]2O)[C@](C)(O)C[C@@H](C)/C(=N/OCOCCOC)[C@H](C)[C@@H](O)[C@]1(C)O`, for which the pIC50 (in the assay on KB; in assay [1]; in assay [2]) was below 4.00 in each case.

With `CC[C@H]1OC(=O)[C@H](C)[C@@H](O[C@H]2C[C@@](C)(OC)[C@@H](O)[C@H](C)O2)[C@H](C)[C@@H](O[C@@H]2O[C@H](C)C[C@H](N(C)CCN(C)[C@H]3C[C@@H](C)O[C@@H](O[C@@H]4[C@@H](C)[C@H](O[C@H]5C[C@@](C)(OC)[C@@H](O)[C@H](C)O5)[C@@H](C)C(=O)O[C@H](CC)[C@@](C)(O)[C@H](O)[C@@H](C)C(=O)[C@H](C)C[C@@]4(C)OC)[C@@H]3O)[C@H]2O)[C@](C)(O)C[C@@H](C)[C@H](N)[C@H](C)[C@@H](O)[C@]1(C)O`, the pIC50 was 4.58 in the assay on KB, 4.24 in assay [1] and 4.75 in assay [2].

For the compound `CC[C@H]1OC(=O)[C@H](C)[C@@H](O[C@H]2C[C@@](C)(OC)[C@@H](O)[C@H](C)O2)[C@H](C)[C@@H](O[C@@H]2O[C@H](C)C[C@H](N(C)CC(=O)N(C)[C@H]3C[C@@H](C)O[C@@H](O[C@@H]4[C@@H](C)[C@H](O)[C@@H](C)C(=O)O[C@H](CC)[C@@](C)(O)[C@H](O)[C@@H](C)/C(=N\OCOCCOC)[C@H](C)C[C@@]4(C)O)[C@@H]3O)[C@H]2O)[C@](C)(OC)C[C@@H](C)C(=O)[C@H](C)[C@@H](O)[C@]1(C)O`, the pIC50 (in the assay with KB; in assay [1]; in assay [2]) was below 4.00 in each case.

Take `C=CCO/N=C1/[C@H](C)C[C@@](C)(O)[C@H](O[C@@H]2O[C@H](C)C[C@H](N(C)CCN(C)[C@H]3C[C@@H](C)O[C@@H](O[C@@H]4[C@@H](C)[C@H](O[C@H]5C[C@@](C)(OC)[C@@H](O)[C@H](C)O5)[C@@H](C)C(=O)O[C@H](CC)[C@@](C)(O)[C@H](O)[C@@H](C)/C(=N\OCC=C)[C@H](C)C[C@@]4(C)O)[C@@H]3O)[C@H]2O)[C@@H](C)[C@H](O[C@H]2C[C@@](C)(OC)[C@@H](O)[C@H](C)O2)[C@@H](C)C(=O)O[C@H](CC)[C@@](C)(O)[C@H](O)[C@H]1C`: the figures for the pIC50 (in the assay with KB; in assay [1]; in assay [2]) were 4.76, below 4.00 and 4.56, respectively.

Consider `CC[C@H]1OC(=O)[C@H](C)[C@@H](O)[C@H](C)[C@@H](O[C@@H]2O[C@H](C)C[C@H](N(C)CCN(C)[C@H]3C[C@@H](C)O[C@@H](O[C@@H]4[C@@H](C)[C@H](O)[C@@H](C)C(=O)O[C@H](CC)[C@@](C)(O)[C@H](O)[C@@H](C)C(=O)[C@H](C)C[C@@]4(C)OC)[C@@H]3O)[C@H]2O)[C@](C)(OC)C[C@@H](C)C(=O)[C@H](C)[C@@H](O)[C@]1(C)O`, for which the pIC50 (with KB; in assay [1]; in assay [2]) was below 4.00 in each case.

With `CC[C@H]1OC(=O)[C@H](C)[C@@H](O[C@H]2C[C@@](C)(OC)[C@@H](O)[C@H](C)O2)[C@H](C)[C@@H](O[C@@H]2O[C@H](C)C[C@H](N(C)CC(=O)N(C)[C@H]3C[C@@H](C)O[C@@H](O[C@@H]4[C@@H](C)[C@H](O[C@H]5C[C@@](C)(OC)[C@@H](O)[C@H](C)O5)[C@@H](C)C(=O)O[C@H](CC)[C@@](C)(O)[C@H](O)[C@@H](C)C(=O)[C@H](C)C[C@@]4(C)O)[C@@H]3O)[C@H]2O)[C@](C)(OC)C[C@@H](C)C(=O)[C@H](C)[C@@H](O)[C@]1(C)O`, the pIC50 (with KB; in assay [1]; in assay [2]) was below 4.00 throughout.

The record behind these values is ChEMBL document CHEMBL3217717, “Synthesis and antiproliferative activity of novel erythromycin derivatives” (Medchemcomm, 2010).
